{"source": "patent US10766873B2", "about": "“Zuclopenthixol hydrochloride derivatives and Ebselen derivatives as ErbB2 inhibitors” (Centre National de la Recherche Scientifique (CNRS), priority 2016, dated 2020)", "key": {"[1]": {"tested_on": "V842I ErbB2-transfected cells", "experiment": "MTT cell proliferation, V842I ErbB2-transfected HBMEC", "assay_type": "cell-based", "conditions": "day 3", "method": "(§1) The WT, V777L or V842I ErbB2-transfected cells were treated with 5 or 10 μM of ZU and cell proliferation was determined each day during 3 days using an MTT assay. Non transfected cells were included as a negative control.\n(§2) The WT, V777L or V842I ErbB2-transfected cells were treated with 5 or 10 μM of EB1 and cell proliferation was determined each day during 3 days using an MTT assay. Non transfected cells were included as a negative control."}, "WT ErbB2": {"molecular_target": "T1, WT ErbB2 (Homo sapiens, UniProt P04626)", "T1 construct": "expressed in transfected cells; host or cells: HBMEC", "experiment": "Western blot pY1248, WT ErbB2 in transfected HBMECs", "assay_type": "cell-based", "conditions": "0, 5, 10 or 20 μM, 48 h", "method": "HBMECs cells were transfected with plasmids encoding WT, ΔEBM (a form of ErbB2 carrying mutations in the juxtamembrane domain and unable to bind to the Ezrin FERM domain), V659E or p95 ErbB2 and treated with 0, 5, 10 or 20 μM ZU for 24 h. ErbB2 activation was then analyzed by western blot analysis using a phospho-ErbB2-specific antibody (pY1248) and a tubulin antibody as a loading control. Histograms show optical density quantification.\n(§3) HBMECs cells were transfected with plasmids encoding WT, V777L or V842I and treated with 0, 5, 10 or 20 μM ZU or EB1 for 48 h. ErbB2 activation was then analyzed by western blot analysis using a phospho-ErbB2-specific antibody (pY1248) and a total ErbB2 antibody. Histograms show optical density quantification."}, "ErbB2 [2]": {"molecular_target": "T2, ErbB2 (Homo sapiens, UniProt P04626)", "experiment": "ErbB2 activation in N87 cells, dot blot (4G10)", "assay_type": "cell-based", "parameters": "endogenous in cells; host or cells: N87", "method": "The phosphotyrosine content in the ErbB2-overexpressing gastric cancer cell line N87 was analyzed by dot blot using an anti-phosphotyrosine antibody (clone 4G10). As in these cells, ErbB2 is the main phosphorylated protein, decreased in total phosphotyrosine content mainly reflected inhibition of ErbB2 activity. As a control, the non-specific ErbB2 kinase inhibitor AG1478 was used. Quantifications show the result of two independent experiments."}, "[3]": {"tested_on": "V777L ErbB2-transfected cells", "experiment": "MTT cell proliferation, V777L ErbB2-transfected HBMEC", "assay_type": "cell-based", "conditions": "day 3", "method": "as §1, §2"}, "V842I ErbB2": {"molecular_target": "T3, V842I ErbB2 (Homo sapiens, UniProt P04626, V842I)", "T3 construct": "expressed in transfected cells; host or cells: HBMEC", "experiment": "Western blot pY1248, V842I ErbB2 in transfected HBMECs", "assay_type": "cell-based", "conditions": "0, 5, 10 or 20 μM, 48 h", "method": "as §3"}, "[4]": {"tested_on": "EGFR/ErBB2 or ErbB3/ErbB2 heterodimers-dependent signalling pathways", "experiment": "Ligand-dependent ErbB2 activation (EGF or HRG) in HBMECs, western blot", "assay_type": "cell-based", "conditions": "pre-treatment 1 h or 24 h", "method": "In physiological conditions, ErbB2 activation occurs in heterodimer with the other ErbB family members, such as the EGFR in response to EGF stimulation or ErbB3 in response to heregulin (HRG) stimulation. We therefore addressed whether ZU, EB1 and their derivatives also affected the ligand-dependent physiological ErbB2 activation.\n16 h-starved HBMECs cells were pre-treated or not for 1 h or 24 h with ZU, […] and their derivatives or AG1478 before EGF (50 ng/mL) or HRG1β (100 ng/mL) stimulation for 5 minutes. The activation of EGFR/ErBB2 or ErbB3/ErbB2 heterodimers-dependent signalling pathways was then analysed by western blot experiments using pAkt, Akt, pERK, ERK or 4G10 antibodies."}, "SKBR3": {"tested_on": "SKBR3", "experiment": "Soft agar colony formation, SKBR3", "assay_type": "cell-based, human", "conditions": "5 or 10 μM, 6 weeks", "method": "(§4) A bottom layer of 0.8% agarose in DMEM supplemented with 20% SVF and penicillin/streptomycin was added to 24 well plates before seeding 25.10^3 SKBR3 or BT474 cells/well in a 0.6% agarose top layer. Cells were left untreated or treated with 5 or 10 μM ZU or EB1 or 5 μM AG1478 (a non-specific ErbB2 kinase inhibitor) as a positive control. Treatments were renewed 3 times a week. After 6 weeks, the number of colonies and their size were quantified using image J software. The colony formation is illustrated for each condition. Data are presented as mean±SEM."}, "MDA-MB-231": {"tested_on": "MDA-MB-231", "experiment": "MTT cell proliferation, MDA-MB-231", "assay_type": "cell-based", "conditions": "10 μM", "method": "(§5) We then analyzed the ability of ZU and EB1 and their derivatives to decrease the ErbB2-dependent cell proliferation.\n(§6) SKBR3, BT474, MCF-7, MDA-MB-231 and HBMEC cells were treated with the compounds as indicated, and cell proliferation was determined each day during 3 days using an MTT assay. Non treated cells were included as a negative control.\nThe ErbB2-overexpressing gastric cancer cell line N87 and MDAMB-231, a non ErbB2-overexpressing breast cancer cell line were treated with 3, 5 or 7 μM of ZU and cell proliferation was determined each day during 3 days using an MTT assay. Non treated cells were included as a negative control.\nThe ErbB2-overexpressing ovarian cancer cell line SKOV3 and MDAMB-231, a non ErbB2-overexpressing breast cancer cell line were treated with 3, 5 or 7 μM of ZU and cell proliferation was determined each day during 3 days using an MTT assay. Non treated cells were included as a negative control."}, "ErbB2 [5]": {"molecular_target": "T2, ErbB2", "experiment": "ErbB2 phosphorylation in SKBR3 cells, dot blot (4G10)", "assay_type": "cell-based", "parameters": "endogenous in cells; host or cells: SKBR3", "conditions": "SKBR3, 24 h", "method": "The ability of ZU and EB1 and their derivatives to inhibit ErbB2 activity in cellulo on a commonly used ErbB2-overexpressing breast cancer cell line SKBR3 was analyzed. SKBR3 were treated 24 h with increasing concentrations of the compounds (0.625-80 μM) and ErbB2 phosphorylation was addressed by dot blot analysis using an anti-phosphotyrosine antibody (clone 4G10). Quantifications show the result of two independent experiments."}, "HBMEC": {"tested_on": "HBMEC", "experiment": "MTT cell proliferation, HBMEC control cells", "assay_type": "cell-based, human", "method": "as §5, §6, §1, §2"}, "BT474": {"tested_on": "BT474", "experiment": "Soft agar colony formation, BT474", "assay_type": "cell-based, human", "conditions": "5 or 10 μM, 6 weeks", "method": "as §4"}}}
{"compound": "O=C1c2ccccc2[Se](=O)N1c1ccccc1", "note": "(stereo not shown) [EB1, Ebselen oxide]", "values": [{"measurement": "decrease of the proliferation of V842I transfected HBMEC", "setting": "[1]; 5 μM", "value": 55, "unit": "%"}, {"measurement": "decrease of the proliferation of V842I transfected HBMEC", "setting": "[1]; 10 μM", "value": 90, "unit": "%"}, {"measurement": "ErbB2 WT activation (in words)", "setting": "WT ErbB2", "value": "potently decrease"}, {"measurement": "ErbB2 activation in N87 cell line (in words)", "setting": "ErbB2 [2]", "value": "potently decrease ErbB2 activation"}, {"measurement": "decrease of the proliferation of V777L transfected HBMEC", "setting": "[3]; 5 μM", "value": 70, "unit": "%"}, {"measurement": "decrease of the proliferation of V777L transfected HBMEC", "setting": "[3]; 10 μM", "value": 85, "unit": "%"}, {"measurement": "ErbB2 V842I activation (in words)", "setting": "V842I ErbB2", "value": "potently decrease"}, {"measurement": "ligand-dependent ErbB2 activation induced by EGF or HRG stimulation (in words)", "setting": "[4]", "value": "absence of inhibition"}, {"measurement": "anchorage-independent growth of SKBR3 (in words)", "setting": "SKBR3", "value": "inhibited the anchorage-independent growth"}, {"measurement": "effect on MDA-MB-231 proliferation (in words)", "setting": "MDA-MB-231", "value": "without any effect"}, {"measurement": "Emax", "setting": "ErbB2 [5]; SK-BR-3, 0.625-80 μM, read-out: ErbB2 activation 24 h Max inhibition, %", "value": 66.9, "unit": "%"}, {"measurement": "maximum inhibition of ErbB2 phosphorylation", "setting": "ErbB2 [5]", "value": 70, "unit": "%"}, {"measurement": "EC50", "setting": "ErbB2 [5]; read-out: ErbB2 activation 24 h EC50", "value": 23.4, "unit": "µM"}, {"measurement": "IC50", "setting": "ErbB2 [5]; read-out: IC50 ErbB2 phosphorylation", "value": 20, "unit": "µM"}, {"measurement": "effect on HBMEC proliferation (in words)", "setting": "HBMEC; 10 μM", "value": "without any effect"}, {"measurement": "effect on proliferation of non-transfected HBMECs cells (in words)", "setting": "HBMEC; 10 μM, day 3", "value": "no effect"}, {"measurement": "EC50", "setting": "HBMEC; Homo sapiens, 72 h, read-out: Cell proliferation at d 3 HBMEC EC50, μM", "value": 99.2, "unit": "µM"}, {"measurement": "Cell proliferation at d 3 HBMEC Max inhibition, %", "setting": "HBMEC; day 3", "value": 94.4, "unit": "%"}, {"measurement": "anchorage-independent growth of BT474 (in words)", "setting": "BT474", "value": "inhibited the anchorage-independent growth"}]}
